Test results taken from US6737383B1, “Herbicidal oxadiazolidines” (priority 1999, dated 2004).

Legend:
[1] = test system: cocklebur; assay: Test B pre/postemergence cocklebur; format: in vivo, Xanthium strumarium
In short: (§1)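 Test chemicals in a non-phytotoxic solvent mixture with surfactant were sprayed preemergence onto planted seeds and postemergence onto plants 2 to 18 cm tall (1- to 4-leaf stage). After twelve to sixteen days in a greenhouse, injury was visually rated against untreated controls from 0 (no effect) to 10 (complete control).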

[2] = test system: crabgrass; assay: Test B pre/postemergence crabgrass; format: in vivo, Digitaria sanguinalis
In short: as §1

[3] = test system: rice; assay: Test B flood test rice; format: in vivo, Oryza sativa; conditions: Pre-emergence
In short: (§2)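 Each value is a visual injury score relative to controls, with 10 meaning complete control and 0 no effect. Evaluation took place twelve to sixteen days after the 2-leaf-stage plants were treated and kept in the greenhouse.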

[4] = test system: pigweed; assay: Test B pre/postemergence pigweed; format: in vivo, Amaranthus retroflexus
In short: as §1

[5] = test system: blackgrass; assay: Test B pre/postemergence blackgrass; format: in vivo, Alopecurus myosuroides
In short: as §1

[6] = test system: purple nutsedge; assay: Test B pre/postemergence purple nutsedge; format: in vivo, Cyperus rotundus
In short: as §1

[7] = test system: wheat; assay: Test B pre/postemergence wheat; format: in vivo, Triticum aestivum
In short: as §1

[8] = test system: corn; assay: Test B pre/postemergence corn; format: in vivo, Zea mays
In short: as §1

[9] = test system: bamyardgrass; assay: Test B flood test barnyardgrass; format: in vivo, Echinochloa crus-galli; conditions: Pre-emergence
In short: as §2

[10] = test system: surinam grass; assay: Test B pre/postemergence surinam grass; format: in vivo, Brachiaria decumbens
In short: as §1

[11] = test system: sugar beet; assay: Test B pre/postemergence sugar beet; format: in vivo, Beta vulgaris
In short: as §1

[12] = test system: morningglory; assay: Test B pre/postemergence morningglory; format: in vivo, Ipomoea hederacea
In short: as §1

[13] = test system: rape; assay: Test B pre/postemergence rape; format: in vivo, Brassica napus
In short: as §1

[14] = test system: wild oat; assay: Test B pre/postemergence wild oat; format: in vivo, Avena fatua
In short: as §1

[15] = test system: bedstraw; assay: Test B pre/postemergence bedstraw; format: in vivo, Galium aparine
In short: as §1

[16] = test system: giant foxtail; assay: Test B pre/postemergence giant foxtail; format: in vivo, Setaria faberii
In short: as §1

[17] = Postemergence, Rate 1000 g/ha, scale 0 to 10 (0 no effect, 10 complete control)
[18] = Preemergence, Rate 250 g/ha, scale of 0 to 10 where 0 is no effect and 10 is complete control
[19] = Preemergence, Rate 500 g/ha, scale of 0 to 10 where 0 is no effect and 10 is complete control
[20] = Rate 125 g/ha, Postemergence, scale of 0 to 10 where 0 is no effect and 10 is complete control
[21] = Rate 250 g/ha, Postemergence, scale of 0 to 10 where 0 is no effect and 10 is complete control
[22] = Rate 500 g/ha, Postemergence, scale 0 to 10, 0 no effect, 10 complete control
[23] = Rate 1000 g/ha, Preemergence, scale 0 to 10 (0 no effect, 10 complete control)
[24] = Rate 1000 g/ha, scale 0 to 10 (0 no effect, 10 complete control)
[25] = Rate 125 g/ha, flood test species, scale 0 to 10 where 0 is no effect and 10 is complete control
[26] = Rate 250 g/ha, flood-test species, scale 0 to 10, 0 is no effect, 10 is complete control
[27] = Rate 500 g/ha, flood test species, scale 0 to 10 (0 no effect, 10 complete control)

CCOC(=O)C(C)N(C(=O)n1oc(=O)n(C(C)C)c1=O)c1ccc(F)cc1 (centres unmarked) [Compound 302]
4: Plant response rating, Sugarbeets [11, 23]
1: Crabgrass plant response rating [2, 17] | Redroot pigweed plant response rating [4, 20] | Wheat plant response rating [7, 17] | Plant response rating, Sugarbeets [11, 21] | Morningglory plant response rating [12, 20] | Giant foxtail plant response rating [16, 20]
10: Plant response rating, Giant foxtail [16, 23]
6: Blackgrass plant response rating [5, 17] | Plant response rating, Blackgrass [5, 23] | Plant response rating, Wild oats [14, 23] | Giant foxtail plant response rating (0 to 10 scale) ([16]; Preemergence, Rate 125 g/ha)
8: Plant response rating, Rape [13, 23]
0: Cocklebur plant response rating [1, 17] | Cocklebur plant response rating (0 to 10 scale) ([1]; Preemergence, Rate 125 g/ha) | Cocklebur plant response rating [1, 18] | Cocklebur plant response rating [1, 19] | Cocklebur plant response rating [1, 20] | Plant response rating, Cocklebur [1, 21] | Cocklebur plant response rating [1, 22] | Plant response rating, Cocklebur [1, 23] | Crabgrass plant response rating (0 to 10 scale) ([2]; Preemergence, Rate 125 g/ha) | Crabgrass plant response rating [2, 20] | Plant response rating, Crabgrass [2, 21] | Rice plant response rating [3, 24] | Rice plant response rating [3, 25] | Rice plant response rating [3, 26] | Rice plant response rating [3, 27] | Redroot pigweed plant response rating (0 to 10 scale) ([4]; Preemergence, Rate 125 g/ha) | Redroot pigweed plant response rating [4, 18] | Redroot pigweed plant response rating [4, 19] | Blackgrass plant response rating (0 to 10 scale) ([5]; Preemergence, Rate 125 g/ha) | Blackgrass plant response rating [5, 20] | Plant response rating, Blackgrass [5, 21] | Nutsedge plant response rating [6, 17] | Nutsedge plant response rating (0 to 10 scale) ([6]; Preemergence, Rate 125 g/ha) | Nutsedge plant response rating [6, 18] | Nutsedge plant response rating [6, 19] | Nutsedge plant response rating [6, 20] | Plant response rating, Nutsedge [6, 21] | Plant response rating, Nutsedge [6, 23] | Wheat plant response rating (0 to 10 scale) ([7]; Preemergence, Rate 125 g/ha) | Wheat plant response rating [7, 18] | Wheat plant response rating [7, 19] | Wheat plant response rating [7, 20] | Plant response rating, Wheat [7, 21] | Plant response rating, Wheat [7, 23] | Corn plant response rating [8, 17] | Corn plant response rating (0 to 10 scale) ([8]; Preemergence, Rate 125 g/ha) | Corn plant response rating [8, 18] | Corn plant response rating [8, 19] | Corn plant response rating [8, 20] | Plant response rating, Corn [8, 21] | Corn plant response rating [8, 22] | Plant response rating, Corn [8, 23] | Barnyardgrass plant response rating [9, 24] | Barnyardgrass plant response rating [9, 25] | Barnyardgrass plant response rating [9, 26] | Barnyardgrass plant response rating [9, 27] | B. signalgrass plant response rating [10, 17] | B. signalgrass plant response rating (0 to 10 scale, 0 is no effect, 10 is complete control) ([10]; Preemergence, Rate 125 g/ha) | B. signalgrass plant response rating [10, 18] | B. signalgrass plant response rating [10, 20] | Plant response rating, B. signalgrass [10, 21] | B. signalgrass plant response rating [10, 22] | Sugarbeets plant response rating (0 to 10 scale) ([11]; Preemergence, Rate 125 g/ha) | Sugarbeets plant response rating [11, 20] | Morningglory plant response rating (0 to 10 scale) ([12]; Preemergence, Rate 125 g/ha) | Morningglory plant response rating [12, 18] | Morningglory plant response rating [12, 19] | Plant response rating, Morningglory [12, 23] | Rape plant response rating [13, 17] | Rape plant response rating (0 to 10 scale) ([13]; Preemergence, Rate 125 g/ha) | Rape plant response rating [13, 18] | Rape plant response rating [13, 20] | Plant response rating, Rape [13, 21] | Wild oats plant response rating [14, 17] | Wild oats plant response rating (0 to 10 scale) ([14]; Preemergence, Rate 125 g/ha) | Wild oats plant response rating [14, 20] | Plant response rating, Wild oats [14, 21] | Bedstraw plant response rating [15, 17] | Bedstraw plant response rating (0 to 10 scale) ([15]; Preemergence, Rate 125 g/ha) | Bedstraw plant response rating [15, 18] | Bedstraw plant response rating [15, 19] | Bedstraw plant response rating [15, 20] | Plant response rating, Bedstraw [15, 21] | Bedstraw plant response rating [15, 22] | Plant response rating, Bedstraw [15, 23]
3: Redroot pigweed plant response rating [4, 17] | Plant response rating, Redroot pigweed [4, 23] | B. signalgrass plant response rating [10, 19]
5: Blackgrass plant response rating [5, 19] | Wild oats plant response rating [14, 19]
7: Crabgrass plant response rating [2, 19] | Plant response rating, Crabgrass [2, 23] | Plant response rating, B. signalgrass [10, 23] | Giant foxtail plant response rating [16, 17] | Giant foxtail plant response rating [16, 18]
9: Giant foxtail plant response rating [16, 19]
2: Crabgrass plant response rating [2, 18] | Plant response rating, Redroot pigweed [4, 21] | Blackgrass plant response rating [5, 18] | Blackgrass plant response rating [5, 22] | Sugarbeets plant response rating [11, 17] | Sugarbeets plant response rating [11, 18] | Sugarbeets plant response rating [11, 19] | Morningglory plant response rating [12, 17] | Plant response rating, Morningglory [12, 21] | Wild oats plant response rating [14, 18] | Plant response rating, Giant foxtail [16, 21]
